Measured values from patent US12216119B2, “IGF-1 analysis, adjustment and disease management of non-neurological and/or neurological conditions” (THE CGP LAB LIMITED, priority 2017, dated 2025).

Key:
[1] = system: rats with ischemic brain injury; conditions: cited from earlier work
hypertensive rats = conditions: cited from earlier work
[2] = Vitamin C added to BCA: efficacy of BCA to increase cGP levels; conditions: added to BCA as ascorbic acid

Compound: O=C1NCC(=O)N2CCC[C@@H]12 [cGP, cyclic glycine-proline]
- ischemic brain injury [1]: prevents ischemic brain injury
- systemic blood pressure (hypertensive rats): normalises the systemic blood pressure

Compound: O=C1O[C@H]([C@@H](O)CO)C(O)=C1O [Vitamin C, ascorbic acid]
- effect on the efficacy of BCA to increase the levels of cGP [2]: negative effect
